Tests used:
[1] = biological target: GDP-bound KRAS wild-type protein (Homo sapiens, UniProt P01116); experiment: Binding to KRAS by surface plasmon resonance (SPR), Single Cycle Kinetics; conditions: SPR, Single Cycle Kinetics, 1:1 binding model; GDP-bound KRAS wild-type protein; read-out: KRAS KD
[2] = biological target: GDP-bound NRAS wild-type protein (Homo sapiens, UniProt P01111); experiment: Binding to NRAS by surface plasmon resonance (SPR), Single Cycle Kinetics; conditions: SPR; GDP-bound NRAS wild-type protein vs GDP-bound KRAS wild-type protein; KD ratio class
[3] = biological target: GDP-bound HRAS wild-type protein (Homo sapiens, UniProt P01112); experiment: Binding to HRAS by surface plasmon resonance (SPR), Single Cycle Kinetics; conditions: SPR; GDP-bound HRAS wild-type protein vs GDP-bound KRAS wild-type protein; KD ratio class
Sequence of GDP-bound HRAS wild-type protein (P01112 whole entry): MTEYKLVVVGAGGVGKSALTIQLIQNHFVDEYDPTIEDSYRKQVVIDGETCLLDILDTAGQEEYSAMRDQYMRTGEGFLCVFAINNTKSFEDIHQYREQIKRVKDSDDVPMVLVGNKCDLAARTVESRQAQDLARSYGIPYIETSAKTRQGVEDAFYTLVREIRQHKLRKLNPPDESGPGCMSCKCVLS

Sequence of GDP-bound KRAS wild-type protein (P01116 whole entry): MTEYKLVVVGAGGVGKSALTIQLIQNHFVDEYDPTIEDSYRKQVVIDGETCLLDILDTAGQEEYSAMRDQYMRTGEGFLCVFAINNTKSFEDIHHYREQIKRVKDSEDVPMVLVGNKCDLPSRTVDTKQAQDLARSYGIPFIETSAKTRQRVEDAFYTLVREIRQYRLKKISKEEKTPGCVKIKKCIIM
Sequence of GDP-bound NRAS wild-type protein (P01111 whole entry): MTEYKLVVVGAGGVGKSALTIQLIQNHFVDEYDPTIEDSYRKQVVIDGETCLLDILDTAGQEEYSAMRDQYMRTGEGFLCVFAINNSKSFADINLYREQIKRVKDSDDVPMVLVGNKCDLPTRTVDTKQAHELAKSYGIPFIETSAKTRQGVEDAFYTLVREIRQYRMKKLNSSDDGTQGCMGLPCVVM

SMILES | Kd [1] [nM] | NRAS/KRAS (ratio of KD value for NRAS to KD value for KRAS) [2] | HRAS/KRAS (ratio of KD value for HRAS to KD value for KRAS) [3]
CCO[C@@H]1C[C@H]2C(=O)NC3(CCC3)C(=O)N(C)[C@@H](C3CCCC3)C(=O)N(C)[C@H](C)CC(=O)N(C)[C@@H](CC3CC3)C(=O)N[C@@H]([C@@H](C)CC)C(=O)N(C)CC(=O)N(C)[C@H]3C/C=C\CCN(C3=O)[C@@H](Cc3ccc(F)cc3)C(=O)N(C)CC(=O)N[C@@H](CCc3cc(F)c(C(F)(F)F)c(F)c3)C(=O)N2C1 [PP1490] | 0.6 | B (a compound having 3 or more and less than 10 is denoted as B) | B (a compound having 3 or more and less than 10 is denoted as B)
CCO[C@@H]1C[C@H]2C(=O)NC3(CCC3)C(=O)N(C)[C@@H](C3CCCC3)C(=O)N(C)[C@H](C(=O)N3CCOCC3)CC(=O)N(C)[C@@H](CC3CC3)C(=O)N[C@@H]([C@@H](C)CC)C(=O)N(C)CC(=O)N(C)[C@H]3C/C=C\CCN(C3=O)[C@@H](Cc3ccc(F)cc3)C(=O)N(C)CC(=O)N[C@@H](CCc3cc(F)c(C(F)(F)F)c(F)c3)C(=O)N2C1 [PP1496] | 0.26 | A (a compound having 10 or more and less than 20 is denoted as A) | B (a compound having 3 or more and less than 10 is denoted as B)
CC[C@H](C)[C@@H]1NC(=O)[C@H](CC2CC2)N(C)C(=O)C[C@@H](C(=O)N(C)C)N(C)C(=O)[C@H](C2CCCC2)N(C)C(=O)C2(CCC2)NC(=O)[C@@H]2C[C@@H](F)CN2C(=O)[C@H](CCc2cc(F)c(C(F)(F)F)c(F)c2)NC(=O)CN(C)C(=O)[C@H](Cc2ccc(C(F)(F)F)cc2)N2CC/C=C\C[C@@H](C2=O)N(C)C(=O)CN(C)C1=O [PP1497, (2S,8S,12R,14S,20S,23S,27S,30S,36S,38Z)-20-cyclopentyl-27-(cyclopropylmethyl)-8-[2-[3,5-difluoro-4-(trifluoromethyl)phenyl]ethyl]-12-fluoro-N,N,4,19,22,26,32,35-octamethyl-30-[(1S)-1-methylpropyl]-3,6,9,15,18,21,25,28,31,34,42-undecaoxo-2-[[4-(trifluoromethyl)phenyl]methyl]spiro[1,4,7,10,16,19,22,26,29,32,35-undecazatricyclo[34.5.1.0^10,14]dotetracont-38-ene-17,1′-cyclobutane]-23-carboxamide] | 0.022 | A (a compound having 10 or more and less than 20 is denoted as A) | A (a compound having 10 or more and less than 20 is denoted as A)
CC[C@H](C)[C@@H]1NC(=O)[C@H](CC2CC2)N(C)C(=O)C[C@@H](C(=O)N(C)C)N(C)C(=O)[C@H](C2CCCC2)N(C)C(=O)C2(CCC2)NC(=O)[C@@H]2C[C@@H](C(F)(F)F)CN2C(=O)[C@H](CCc2cc(F)c(C(F)(F)F)c(F)c2)NC(=O)CN(C)C(=O)[C@H](Cc2ccc(C(F)(F)F)cc2)N2CC/C=C\C[C@@H](C2=O)N(C)C(=O)CN(C)C1=O [PP1498] | 0.069 | A (a compound having 10 or more and less than 20 is denoted as A) | A (a compound having 10 or more and less than 20 is denoted as A)
CC[C@H](C)[C@@H]1NC(=O)[C@H](CC2CC2)N(C)C(=O)C[C@@H](C(=O)N(C)C)N(C)C(=O)[C@H](C2CCCC2)N(C)C(=O)C2(CCC2)NC(=O)[C@@H]2C[C@H](C)CN2C(=O)[C@H](CCc2cc(F)c(C(F)(F)F)c(F)c2)NC(=O)CN(C)C(=O)[C@H](Cc2ccc(C(F)(F)F)cc2)N2CC/C=C\C[C@@H](C2=O)N(C)C(=O)CN(C)C1=O [PP1499, (2S,8S,12S,14S,20S,23S,27S,30S,36S,38Z)-20-cyclopentyl-27-(cyclopropylmethyl)-8-[2-[3,5-difluoro-4-(trifluoromethyl)phenyl]ethyl]-N,N,4,12,19,22,26,32,35-nonamethyl-30-[(1S)-1-methylpropyl]-3,6,9,15,18,21,25,28,31,34,42-undecaoxo-2-[[4-(trifluoromethyl)phenyl]methyl]spiro[1,4,7,10,16,19,22,26,29,32,35-undecazatricyclo[34.5.1.0^10,14]dotetracont-38-ene-17,1′-cyclobutane]-23-carboxamide] | 0.054 | A (a compound having 10 or more and less than 20 is denoted as A) | B (a compound having 3 or more and less than 10 is denoted as B)
CC[C@H](C)[C@@H]1NC(=O)[C@H](CC2CC2)N(C)C(=O)C[C@@H](C(=O)N(C)C)N(C)C(=O)[C@H](C2CCCC2)N(C)C(=O)C2(CCC2)NC(=O)[C@@H]2CC(F)(F)CN2C(=O)[C@H](CCc2cc(F)c(C(F)(F)F)c(F)c2)NC(=O)CN(C)C(=O)[C@H](Cc2ccc(C(F)(F)F)cc2)N2CC/C=C\C[C@@H](C2=O)N(C)C(=O)CN(C)C1=O [PP1500, (2S,8S,14S,20S,23S,27S,30S,36S,38Z)-20-cyclopentyl-27-(cyclopropylmethyl)-8-[2-[3,5-difluoro-4-(trifluoromethyl)phenyl]ethyl]-12,12-difluoro-N,N,4,19,22,26,32,35-octamethyl-30-[(1S)-1-methylpropyl]-3,6,9,15,18,21,25,28,31,34,42-undecaoxo-2-[[4-(trifluoromethyl)phenyl]methyl]spiro[1,4,7,10,16,19,22,26,29,32,35-undecazatricyclo[34.5.1.0^10,14]dotetracont-38-ene-17,1′-cyclobutane]-23-carboxamide] | 0.039 | A (a compound having 10 or more and less than 20 is denoted as A) | A (a compound having 10 or more and less than 20 is denoted as A)
CC[C@H](C)[C@@H]1NC(=O)[C@H](CC2CC2)N(C)C(=O)C[C@@H](C(=O)N(C)C)N(C)C(=O)[C@H](C2CCCC2)N(C)C(=O)C2(CC(C)(C)C2)NC(=O)[C@@H]2C[C@@H](F)CN2C(=O)[C@H](CCc2cc(F)c(C(F)(F)F)c(F)c2)NC(=O)CN(C)C(=O)[C@H](Cc2ccc(C(F)(F)F)cc2)N2CC/C=C\C[C@@H](C2=O)N(C)C(=O)CN(C)C1=O [PP1501, (2S,8S,12R,14S,20S,23S,27S,30S,36S,38Z)-20-cyclopentyl-27-(cyclopropylmethyl)-8-[2-[3,5-difluoro-4-(trifluoromethyl)phenyl]ethyl]-12-fluoro-N,N,3′,3′,4,19,22,26,32,35-decamethyl-30-[(1S)-1-methylpropyl]-3,6,9,15,18,21,25,28,31,34,42-undecaoxo-2-[[4-(trifluoromethyl)phenyl]methyl]spiro[1,4,7,10,16,19,22,26,29,32,35-undecazatricyclo[34.5.1.0^10,14]dotetracont-38-ene-17,1′-cyclobutane]-23-carboxamide] | 0.024 | A (a compound having 10 or more and less than 20 is denoted as A) | A (a compound having 10 or more and less than 20 is denoted as A)
